Converted amounts (≈) assume the structure as drawn.
Tested on: S. aureus 29213
Assay: Bacterial growth minimal inhibitory concentrations (microdilution, cation-adjusted Mueller-Hinton Broth, CLSI M7-A7)
Format: cell-based
Settings: Staphylococcus aureus, 29213; microdilution in cation-adjusted Mueller-Hinton Broth
Procedure: Bacterial Growth Minimal Inhibitory Concentrations: Minimal inhibitory concentrations (MICs; mg/l) were determined in cation-adjusted MuellerHinton Broth by a microdilution method following the description given in “Methods for Dilution Antimicrobial Susceptibility Tests for Bacteria that Grow Aerobically”, Approved standard, 7th ed., Clinical and Laboratory Standards Institute (CLSI) Document M7-A7, Wayne, Pa., USA, 2006. Typical antibacterial test results are given in Table 1 hereafter (MIC in mg/l).

SMILES	MIC
Cc1cccc2c(=O)n(CCNC[C@@H]3CN(c4ccc5c(c4)NC(=O)CS5)C(=O)O3)c(=O)[nH]c12 [Example 60, 8-methyl-3-(2-{[(R)-2-oxo-3-(3-oxo-3,4-dihydro-2H-benzo[1,4]thiazin-6-yl)-oxazolidin-5-ylmethyl]-amino}-ethyl)-1H-quinazoline-2,4-dione]	0.25 µg/mL (≈ 0.519 µM)
Cc1cccc2[nH]c(=O)n(CCC[C@@H]3CN(c4ccc5c(n4)NC(=O)CO5)C(=O)O3)c(=O)c12 [Example 9, 5-methyl-3-{3-[(R)-2-oxo-3-(3-oxo-3,4-dihydro-2H-pyrido[3,2-b][1,4]oxazin-6-yl)-oxazolidin-5-yl]-propyl}-1H-quinazoline-2,4-dione]	0.031 µg/mL (≈ 0.0687 µM)
Cc1cccc2c(=O)n(CCC[C@H]3CN(c4ccc5c(n4)NC(=O)CS5)C(=O)O3)c(=O)[nH]c12 [Example 14, 8-methyl-3-{3-[(S)-2-oxo-3-(3-oxo-3,4-dihydro-2H-pyrido[3,2-b][1,4]thiazin-6-yl)-oxazolidin-5-yl]-propyl}-1H-quinazoline-2,4-dione]	≤ 0.016 µg/mL
O=C1CSc2ccc(N3C[C@@H](CCCn4c(=O)[nH]c5cc(Cl)ccc5c4=O)OC3=O)cc2N1 [Example 27, 7-chloro-3-{3-[(R)-2-oxo-3-(3-oxo-3,4-dihydro-2H-benzo[1,4]-thiazin-6-yl)-oxazolidin-5-yl]-propyl}-1H-quinazoline-2,4-dione]	0.063 µg/mL (≈ 0.129 µM)
C=Cc1ccc2c(=O)n(CCC[C@@H]3CN(c4ccc5c(c4)NC(=O)CS5)C(=O)O3)c(=O)n(C)c2c1 [Example 47, 1-methyl-3-{3-[(R)-2-oxo-3-(3-oxo-3,4-dihydro-2H-benzo[1,4]-thiazin-6-yl)-oxazolidin-5-yl]-propyl}-7-vinyl-1H-quinazoline-2,4-dione]	0.063 µg/mL (≈ 0.128 µM)
O=C1CSc2ccc(N3C[C@@H](CCCn4c(=O)[nH]c5cccc(F)c5c4=O)OC3=O)cc2N1 [Example 17, 5-fluoro-3-{3-[(R)-2-oxo-3-(3-oxo-3,4-dihydro-2H-benzo[1,4]thiazin-6-yl)-oxazolidin-5-yl]-propyl}-1H-quinazoline-2,4-dione]	0.125 µg/mL (≈ 0.266 µM)
Cn1c(=O)n(CC(O)CC[C@@H]2CN(c3ccc4c(n3)NC(=O)CS4)C(=O)O2)c(=O)c2ccccc21 (mixture of isomers) [Example 50, 3-{(RS)-2-hydroxy-4-[(R)-2-oxo-3-(3-oxo-3,4-dihydro-2H-pyrido[3,2-b][1,4]thiazin-6-yl)-oxazolidin-5-yl]-butyl}-1-methyl-1H-quinazoline-2,4-dione]	0.125 µg/mL

The remaining lines, values ahead:

MIC	SMILES
≤ 0.016 µg/mL	O=C1CSc2ccc(N3C[C@H](CCCn4c(=O)[nH]c5cccc(Cl)c5c4=O)OC3=O)cc2N1 [Example 18, 5-chloro-3-{3-[(S)-2-oxo-3-(3-oxo-3,4-dihydro-2H-benzo[1,4]thiazin-6-yl)-oxazolidin-5-yl]-propyl}-1H-quinazoline-2,4-dione]
≤ 0.016 µg/mL	O=C1CSc2ccc(N3C[C@H](CCCn4c(=O)[nH]c5c(Cl)cccc5c4=O)OC3=O)nc2N1 [Example 22, 8-chloro-3-{3-[(S)-2-oxo-3-(3-oxo-3,4-dihydro-2H-pyrido[3,2-b][1,4]thiazin-6-yl)-oxazolidin-5-yl]-propyl}-1H-quinazoline-2,4-dione]
≤ 0.016 µg/mL	O=C1CSc2ccc(N3C[C@H](CNCCn4c(=O)c5cccc6c5n(c4=O)CCC6)OC3=O)nc2N1 [Example 67, 2-(2-{[(S)-2-oxo-3-(3-oxo-3,4-dihydro-2H-pyrido[3,2-b][1,4]thiazin-6-yl)-oxazolidin-5-ylmethyl]-amino}-ethyl)-6,7-dihydro-5H-pyrido[3,2,1-ij]quinazoline-1,3-dione]
≤ 0.016 µg/mL	O=C1CSc2ccc(N3C[C@H](CCCn4c(=O)[nH]c5c(Cl)cccc5c4=O)OC3=O)cc2N1 [Example 29, 8-chloro-3-{3-[(S)-2-oxo-3-(3-oxo-3,4-dihydro-2H-benzo[1,4]-thiazin-6-yl)-oxazolidin-5-yl]-propyl}-1H-quinazoline-2,4-dione]
≤ 0.016 µg/mL	Cc1cccc2c(=O)n(CCC[C@H]3CN(c4ccc5c(c4)NC(=O)CS5)C(=O)O3)c(=O)[nH]c12 [Example 13, 8-methyl-3-{3-[(S)-2-oxo-3-(3-oxo-3,4-dihydro-2H-benzo[1,4]thiazin-6-yl)-oxazolidin-5-yl]-propyl}-1H-quinazoline-2,4-dione]
≤ 0.016 µg/mL	O=C1CSc2ccc(N3C[C@H](CCCn4c(=O)[nH]c5ccccc5c4=O)OC3=O)cc2N1 [Example 1, 3-{3-[(S)-2-oxo-3-(3-oxo-3,4-dihydro-2H-benzo[1,4]thiazin-6-yl)-oxazolidin-5-yl]-propyl}-1H-quinazoline-2,4-dione]

Source: patent US8916573B2, “Quinazoline-2,4-dione derivatives” (Actelion Pharmaceuticals Ltd., priority 2011, dated 2014)
